Reference: paper PMC6757289, “Design and Characterization of SGK3-PROTAC1, an Isoform Specific SGK3 Kinase PROTAC Degrader” (ACS Chemical Biology, 2019)
Where two headings read alike, the source gives them in different places.

Key:
Test in all cases: kinase profiling panel
Assay type in all cases: biochemical
BTK = BTK (Homo sapiens, UniProt Q06187); settings: read-out: % Activity Remaining
From the text: (§1) Protein kinase profiling against a Dundee panel of 140 protein kinases was undertaken at the International Centre for Protein Kinase Profiling. The result for each kinase was presented as a mean kinase activity of the reaction taken in triplicate relative to a control sample treated with DMSO. Assay conditions and abbreviations are available at http://www.kinase-screen.mrc.ac.uk.

CAMK1 = CAMK1 (Homo sapiens, UniProt Q14012); settings: read-out: % Activity Remaining
CAMK1, sequence (Q14012 whole entry): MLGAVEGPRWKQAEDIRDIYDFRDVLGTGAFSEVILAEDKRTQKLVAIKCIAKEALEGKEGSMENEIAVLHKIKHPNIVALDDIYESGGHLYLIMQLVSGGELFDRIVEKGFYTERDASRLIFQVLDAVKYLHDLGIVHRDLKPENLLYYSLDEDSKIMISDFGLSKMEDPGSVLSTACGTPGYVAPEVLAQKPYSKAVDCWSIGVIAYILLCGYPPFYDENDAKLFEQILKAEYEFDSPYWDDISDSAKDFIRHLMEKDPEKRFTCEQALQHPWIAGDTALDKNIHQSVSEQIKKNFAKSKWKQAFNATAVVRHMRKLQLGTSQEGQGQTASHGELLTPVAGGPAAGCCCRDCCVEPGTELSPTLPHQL
From the text: as §1

CK1 gamma 2 = CK1 gamma 2 (Homo sapiens, UniProt P78368); settings: read-out: % Activity Remaining
CK1 gamma 2, sequence (P78368 whole entry): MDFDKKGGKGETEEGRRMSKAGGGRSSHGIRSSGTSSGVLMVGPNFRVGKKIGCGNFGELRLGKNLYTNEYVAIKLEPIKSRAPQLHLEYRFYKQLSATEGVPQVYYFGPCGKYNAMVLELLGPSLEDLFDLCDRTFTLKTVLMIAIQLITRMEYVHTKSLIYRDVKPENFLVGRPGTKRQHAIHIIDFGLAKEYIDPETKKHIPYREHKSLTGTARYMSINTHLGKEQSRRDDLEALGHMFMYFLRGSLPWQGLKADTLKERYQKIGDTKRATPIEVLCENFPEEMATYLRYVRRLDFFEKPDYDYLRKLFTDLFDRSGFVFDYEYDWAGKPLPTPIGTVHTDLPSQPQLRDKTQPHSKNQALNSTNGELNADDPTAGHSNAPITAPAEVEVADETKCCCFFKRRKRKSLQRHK
From the text: as §1

EIF2AK3 = target: T1, EIF2AK3 (Homo sapiens, UniProt Q9NZJ5); settings: read-out: % Activity Remaining
T1 sequence (Q9NZJ5 30-1116): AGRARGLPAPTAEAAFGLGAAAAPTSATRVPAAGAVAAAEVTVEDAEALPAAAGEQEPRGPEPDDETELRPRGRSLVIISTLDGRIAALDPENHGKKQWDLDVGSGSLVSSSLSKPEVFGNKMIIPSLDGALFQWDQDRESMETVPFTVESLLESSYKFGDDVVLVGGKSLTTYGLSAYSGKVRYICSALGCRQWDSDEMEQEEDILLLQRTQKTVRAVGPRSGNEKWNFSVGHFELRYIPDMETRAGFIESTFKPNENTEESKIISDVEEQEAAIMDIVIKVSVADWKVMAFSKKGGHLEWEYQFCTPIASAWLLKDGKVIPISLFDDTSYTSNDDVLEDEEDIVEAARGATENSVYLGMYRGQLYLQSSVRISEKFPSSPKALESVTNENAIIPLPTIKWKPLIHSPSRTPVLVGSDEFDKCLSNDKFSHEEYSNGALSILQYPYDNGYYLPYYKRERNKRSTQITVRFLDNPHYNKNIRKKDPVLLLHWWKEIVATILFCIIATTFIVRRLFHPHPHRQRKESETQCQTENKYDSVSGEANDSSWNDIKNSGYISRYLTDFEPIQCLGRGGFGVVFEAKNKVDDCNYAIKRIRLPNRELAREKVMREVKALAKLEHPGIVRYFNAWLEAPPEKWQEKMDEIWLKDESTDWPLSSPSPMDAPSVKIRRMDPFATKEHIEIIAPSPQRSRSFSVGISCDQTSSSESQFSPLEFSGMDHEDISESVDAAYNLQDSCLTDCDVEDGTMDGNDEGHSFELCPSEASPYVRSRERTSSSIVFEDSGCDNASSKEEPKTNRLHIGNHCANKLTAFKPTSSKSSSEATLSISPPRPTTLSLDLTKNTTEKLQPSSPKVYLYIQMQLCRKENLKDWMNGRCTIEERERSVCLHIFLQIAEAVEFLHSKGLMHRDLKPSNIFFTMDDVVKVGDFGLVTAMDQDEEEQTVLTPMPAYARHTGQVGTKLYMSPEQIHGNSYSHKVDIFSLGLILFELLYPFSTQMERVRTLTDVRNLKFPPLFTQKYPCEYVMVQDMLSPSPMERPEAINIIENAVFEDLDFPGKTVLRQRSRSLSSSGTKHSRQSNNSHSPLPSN
From the text: as §1

FGF-R1 = FGF-R1 (Homo sapiens, UniProt P11362); settings: read-out: % Activity Remaining
FGF-R1, sequence (P11362 22-822): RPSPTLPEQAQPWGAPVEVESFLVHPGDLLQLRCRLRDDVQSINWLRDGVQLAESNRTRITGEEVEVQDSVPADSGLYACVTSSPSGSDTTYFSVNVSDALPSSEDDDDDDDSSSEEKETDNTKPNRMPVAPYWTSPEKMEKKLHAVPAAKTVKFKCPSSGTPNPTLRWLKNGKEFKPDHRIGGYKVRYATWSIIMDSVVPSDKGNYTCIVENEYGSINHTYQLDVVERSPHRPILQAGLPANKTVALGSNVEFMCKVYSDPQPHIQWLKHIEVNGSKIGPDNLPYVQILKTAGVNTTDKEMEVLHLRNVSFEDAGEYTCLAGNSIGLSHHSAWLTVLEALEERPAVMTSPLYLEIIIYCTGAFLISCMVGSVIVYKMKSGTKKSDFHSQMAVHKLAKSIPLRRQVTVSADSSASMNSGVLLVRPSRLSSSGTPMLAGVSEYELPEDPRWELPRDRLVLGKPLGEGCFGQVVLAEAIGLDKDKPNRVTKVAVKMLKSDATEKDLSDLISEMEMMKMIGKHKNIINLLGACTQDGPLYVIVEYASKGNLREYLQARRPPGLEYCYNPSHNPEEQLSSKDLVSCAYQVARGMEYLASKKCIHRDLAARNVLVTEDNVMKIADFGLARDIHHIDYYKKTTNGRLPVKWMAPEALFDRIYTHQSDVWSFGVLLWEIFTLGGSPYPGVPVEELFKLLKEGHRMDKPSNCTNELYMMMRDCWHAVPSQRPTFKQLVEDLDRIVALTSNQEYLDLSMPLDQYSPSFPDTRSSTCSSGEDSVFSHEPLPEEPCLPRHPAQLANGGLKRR
From the text: as §1

IGF-1R = IGF-1R (Homo sapiens, UniProt P08069); settings: read-out: % Activity Remaining
From the text: as §1

MST3 = MST3 (Homo sapiens, UniProt Q9Y6E0); settings: read-out: % Activity Remaining
MST3, sequence (Q9Y6E0 whole entry): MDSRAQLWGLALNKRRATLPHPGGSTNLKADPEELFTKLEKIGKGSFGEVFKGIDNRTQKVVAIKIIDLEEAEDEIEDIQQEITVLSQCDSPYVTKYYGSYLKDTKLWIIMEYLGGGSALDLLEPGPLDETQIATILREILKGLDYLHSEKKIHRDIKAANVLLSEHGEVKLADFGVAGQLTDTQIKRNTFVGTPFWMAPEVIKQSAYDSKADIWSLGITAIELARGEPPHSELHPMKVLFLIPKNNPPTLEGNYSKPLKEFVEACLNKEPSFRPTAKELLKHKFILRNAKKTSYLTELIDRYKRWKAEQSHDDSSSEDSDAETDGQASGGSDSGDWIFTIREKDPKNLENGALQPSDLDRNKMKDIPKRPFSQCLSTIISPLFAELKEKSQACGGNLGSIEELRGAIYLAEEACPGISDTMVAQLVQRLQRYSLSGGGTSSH
From the text: as §1

PKD1 = target: T2, PKD1 (Homo sapiens, UniProt Q15139); settings: read-out: % Activity Remaining
T2 sequence (Q15139 1-912): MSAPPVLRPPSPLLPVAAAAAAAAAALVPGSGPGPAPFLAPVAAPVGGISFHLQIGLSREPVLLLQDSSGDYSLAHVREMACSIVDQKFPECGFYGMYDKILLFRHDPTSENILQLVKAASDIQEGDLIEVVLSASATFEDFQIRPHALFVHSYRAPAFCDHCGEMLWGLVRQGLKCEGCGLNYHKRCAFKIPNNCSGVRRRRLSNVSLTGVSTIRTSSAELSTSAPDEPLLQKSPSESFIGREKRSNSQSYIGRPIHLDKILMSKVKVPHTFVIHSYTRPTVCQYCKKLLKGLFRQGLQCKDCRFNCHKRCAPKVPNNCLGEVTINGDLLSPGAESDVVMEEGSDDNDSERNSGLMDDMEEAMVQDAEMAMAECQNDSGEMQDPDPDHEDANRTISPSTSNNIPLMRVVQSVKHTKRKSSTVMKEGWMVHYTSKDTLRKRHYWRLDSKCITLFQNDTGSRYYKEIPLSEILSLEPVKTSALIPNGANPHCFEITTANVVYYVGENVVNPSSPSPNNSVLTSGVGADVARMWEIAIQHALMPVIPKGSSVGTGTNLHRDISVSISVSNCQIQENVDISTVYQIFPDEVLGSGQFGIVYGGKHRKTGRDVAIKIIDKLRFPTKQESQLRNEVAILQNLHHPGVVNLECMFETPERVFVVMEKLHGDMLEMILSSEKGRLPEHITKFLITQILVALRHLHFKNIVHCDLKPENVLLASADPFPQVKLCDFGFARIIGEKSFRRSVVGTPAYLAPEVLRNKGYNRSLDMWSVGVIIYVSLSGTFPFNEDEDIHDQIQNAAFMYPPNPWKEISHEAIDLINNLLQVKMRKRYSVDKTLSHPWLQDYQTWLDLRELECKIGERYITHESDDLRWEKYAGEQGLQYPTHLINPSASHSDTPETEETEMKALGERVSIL
From the text: as §1

SmMLCK = SmMLCK (Homo sapiens, UniProt Q15746)
SmMLCK, sequence (Q15746 923-1914): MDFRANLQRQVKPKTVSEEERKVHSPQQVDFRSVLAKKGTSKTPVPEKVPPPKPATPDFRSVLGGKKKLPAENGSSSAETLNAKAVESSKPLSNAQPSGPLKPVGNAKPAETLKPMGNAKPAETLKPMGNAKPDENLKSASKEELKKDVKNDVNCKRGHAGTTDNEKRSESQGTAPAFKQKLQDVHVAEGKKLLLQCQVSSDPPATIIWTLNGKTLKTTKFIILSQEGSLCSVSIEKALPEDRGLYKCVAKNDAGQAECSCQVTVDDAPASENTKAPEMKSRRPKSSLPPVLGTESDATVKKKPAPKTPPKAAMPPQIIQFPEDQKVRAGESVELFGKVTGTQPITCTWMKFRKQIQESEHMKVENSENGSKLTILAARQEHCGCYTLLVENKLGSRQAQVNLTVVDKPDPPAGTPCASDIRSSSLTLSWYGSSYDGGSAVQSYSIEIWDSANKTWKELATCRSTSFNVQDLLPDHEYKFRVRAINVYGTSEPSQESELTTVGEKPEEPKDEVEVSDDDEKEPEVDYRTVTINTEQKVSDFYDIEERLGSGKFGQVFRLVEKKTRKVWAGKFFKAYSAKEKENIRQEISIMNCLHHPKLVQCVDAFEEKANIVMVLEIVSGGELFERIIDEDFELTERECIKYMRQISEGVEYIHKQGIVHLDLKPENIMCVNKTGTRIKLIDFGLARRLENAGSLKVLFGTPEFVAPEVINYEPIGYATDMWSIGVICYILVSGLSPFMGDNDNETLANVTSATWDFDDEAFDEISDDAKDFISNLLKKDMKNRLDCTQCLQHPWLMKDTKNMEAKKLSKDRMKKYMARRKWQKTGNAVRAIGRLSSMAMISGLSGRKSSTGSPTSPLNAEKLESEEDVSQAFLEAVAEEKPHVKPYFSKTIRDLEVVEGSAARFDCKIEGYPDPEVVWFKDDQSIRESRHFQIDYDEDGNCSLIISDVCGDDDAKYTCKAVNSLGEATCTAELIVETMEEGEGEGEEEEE
From the text: as §1

Src = Src (Homo sapiens, UniProt P12931); settings: read-out: % Activity Remaining
From the text: as §1

TTBK1 = TTBK1 (Homo sapiens, UniProt Q5TCY1); settings: read-out: % Activity Remaining
From the text: as §1

YES1 = YES1 (Homo sapiens, UniProt P07947); settings: read-out: % Activity Remaining
YES1, sequence (P07947 whole entry): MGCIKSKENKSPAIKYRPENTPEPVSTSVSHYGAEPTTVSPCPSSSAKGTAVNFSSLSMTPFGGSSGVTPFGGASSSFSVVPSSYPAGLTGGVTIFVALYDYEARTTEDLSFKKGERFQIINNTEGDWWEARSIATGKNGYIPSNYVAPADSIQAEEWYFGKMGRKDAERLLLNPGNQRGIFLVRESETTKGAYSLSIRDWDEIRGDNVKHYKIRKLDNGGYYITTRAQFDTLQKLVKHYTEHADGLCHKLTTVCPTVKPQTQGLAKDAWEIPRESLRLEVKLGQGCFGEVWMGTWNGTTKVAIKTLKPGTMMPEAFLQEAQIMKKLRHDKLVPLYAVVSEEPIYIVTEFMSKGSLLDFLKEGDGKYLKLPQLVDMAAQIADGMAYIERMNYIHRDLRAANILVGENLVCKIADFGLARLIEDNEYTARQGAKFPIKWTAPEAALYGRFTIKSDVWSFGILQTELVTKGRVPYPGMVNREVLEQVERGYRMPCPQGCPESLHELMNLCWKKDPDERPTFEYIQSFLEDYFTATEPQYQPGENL
From the text: as §1

p38 beta MAPK = p38 beta MAPK (Homo sapiens, UniProt Q15759); settings: read-out: % Activity Remaining
p38 beta MAPK, sequence (Q15759 whole entry): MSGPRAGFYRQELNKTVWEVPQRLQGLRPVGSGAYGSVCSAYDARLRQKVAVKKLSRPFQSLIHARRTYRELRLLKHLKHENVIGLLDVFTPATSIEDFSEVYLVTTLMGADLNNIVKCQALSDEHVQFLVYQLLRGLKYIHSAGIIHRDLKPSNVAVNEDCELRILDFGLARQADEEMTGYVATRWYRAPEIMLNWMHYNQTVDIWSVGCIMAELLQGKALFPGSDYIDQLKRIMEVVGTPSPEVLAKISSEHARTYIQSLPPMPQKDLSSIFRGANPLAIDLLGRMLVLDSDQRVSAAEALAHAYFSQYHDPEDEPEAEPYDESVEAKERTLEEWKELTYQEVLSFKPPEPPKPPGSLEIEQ
From the text: as §1

BTK, sequence (Q06187 whole entry): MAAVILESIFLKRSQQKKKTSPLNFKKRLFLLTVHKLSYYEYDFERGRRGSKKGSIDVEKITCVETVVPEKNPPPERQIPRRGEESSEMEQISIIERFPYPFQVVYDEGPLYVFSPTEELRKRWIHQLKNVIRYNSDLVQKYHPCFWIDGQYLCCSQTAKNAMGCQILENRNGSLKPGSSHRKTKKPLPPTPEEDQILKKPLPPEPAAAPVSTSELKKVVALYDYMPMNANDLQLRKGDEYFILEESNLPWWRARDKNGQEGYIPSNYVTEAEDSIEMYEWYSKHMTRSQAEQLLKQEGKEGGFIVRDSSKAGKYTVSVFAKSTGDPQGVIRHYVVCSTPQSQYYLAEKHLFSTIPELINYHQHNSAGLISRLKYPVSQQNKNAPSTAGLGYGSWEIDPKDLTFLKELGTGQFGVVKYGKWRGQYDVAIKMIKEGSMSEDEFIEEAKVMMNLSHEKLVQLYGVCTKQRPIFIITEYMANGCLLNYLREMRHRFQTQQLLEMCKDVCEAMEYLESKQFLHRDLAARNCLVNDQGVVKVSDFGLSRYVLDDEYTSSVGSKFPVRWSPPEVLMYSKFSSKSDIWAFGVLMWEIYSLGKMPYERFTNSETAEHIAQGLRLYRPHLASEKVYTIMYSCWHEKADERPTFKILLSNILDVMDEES

Row | SMILES | remaining activity at 1 µM (BTK) | remaining activity at 1 µM (CAMK1) | remaining activity at 1 µM (CK1 gamma 2) | remaining activity at 1 µM (EIF2AK3) | remaining activity at 1 µM (FGF-R1) | remaining activity at 1 µM (IGF-1R) | remaining activity at 1 µM (MST3) | remaining activity at 1 µM (PKD1) | remaining activity at 1 µM (SmMLCK) | remaining activity at 1 µM (Src) | remaining activity at 1 µM (YES1) | remaining activity at 1 µM (p38 beta MAPK) | remaining activity at 1 µM (TTBK1; 1 µM) | remaining activity at 1 µM (BTK; 1 µM) | remaining activity at 1 µM (CAMK1; 1 µM) | remaining activity at 1 µM (CK1 gamma 2; 1 µM) | remaining activity at 1 µM (EIF2AK3; 1 µM) | remaining activity at 1 µM (FGF-R1; 1 µM) | remaining activity at 1 µM (IGF-1R; 1 µM) | remaining activity at 1 µM (MST3; 1 µM) | other results
1 | COc1ccc(Cl)c(S(=O)(=O)Nc2ccc(-c3nc(OC[C@H]4CNCCO4)c4c(C)n[nH]c4n3)cc2)c1 [290-R, reference compound] | 91% | 3% | 112% | 66% | 104% | 88% | 57% | 15% | 23% | 104% | 92% | 99% | – | – | – | – | – | – | – | – | remaining activity at 1 µM (TTBK1): 109%
2 | Cc1ccc(F)c(S(=O)(=O)Nc2ccc(-c3nc(OC[C@H]4CNCCO4)c4cn[nH]c4n3)cc2)c1 [308-R, reference compound] | 59% | 22% | 67% | 63% | 115% | 95% | 79% | 37% | 74% | 131% | 71% | 116% | 91% | – | – | – | – | – | – | – | –
3 | Cc1ccc(F)c(S(=O)(=O)Nc2ccc(-c3nc(OC[C@H]4CN(CCCCCCOCCOCCOCC(=O)N[C@H](C(=O)N5C[C@H](O)C[C@H]5C(=O)NCc5ccc(-c6scnc6C)cc5)C(C)(C)C)CCO4)c4cn[nH]c4n3)cc2)c1 [SGK3-PROTAC1] | – | – | – | – | – | – | – | – | 53% | – | – | – | 105% | 97% | 86% | 101% | 106% | 108% | 82% | 102% | remaining activity at 1 µM (PKD1; 1 µM): 94%; remaining activity at 1 µM (Src; 1 µM): 83%; remaining activity at 1 µM (YES1; 1 µM): 108%; remaining activity at 1 µM (p38 beta MAPK; 1 µM): 107%
4 | Cc1ccc(F)c(S(=O)(=O)Nc2ccc(-c3nc(OC[C@H]4CN(CCCCCCOCCOCCOCC(=O)N[C@H](C(=O)N5C[C@@H](O)C[C@H]5C(=O)NCc5ccc(-c6scnc6C)cc5)C(C)(C)C)CCO4)c4cn[nH]c4n3)cc2)c1 [cisSGK3-PROTAC1] | – | – | – | – | – | – | – | – | 71% | – | – | – | 113% | 91% | 105% | 106% | 111% | 106% | 93% | 113% | remaining activity at 1 µM (PKD1; 1 µM): 92%; remaining activity at 1 µM (Src; 1 µM): 87%; remaining activity at 1 µM (YES1; 1 µM): 105%; remaining activity at 1 µM (p38 beta MAPK; 1 µM): 112%
